Data reported in patent US20250263408A1 (Uniquest Pty Ltd, priority 2022, published 2025).

Assays:
[1] = test system: Ba/F3-WT (wild type) cells; assay: Ba/F3 Proliferation Assay, Ba/F3-WT (wild type) cells with mIL-3 (Resazurin); assay type: cell-based; conditions: Ba/F3-WT cells +mIL-3, 48-hour incubation
[2] = biological target: T1, Ba/F3-Syk cells (Homo sapiens, UniProt P43405); assay: Ba/F3 Proliferation Assay, Ba/F3-Syk cells (Resazurin); assay type: cell-based; conditions: 48-hour incubation
T1 construct: fused on or other part: Possible but unprinted fusion partner: TEL (ETV6), the usual partner for Ba/F3 lines transformed by Syk; Nothing on a partner is printed

| SMILES | EC50 ([1]; Mus musculus, BaF3, 48 h) [nM] | EC50 [2] [nM] | EC50 [1] [nM] |
| --- | --- | --- | --- |
| CC1(C)CNC[C@@H](COc2cc(-c3ccn(C4CC4(F)F)c3)cc3ncccc23)O1 (stereo partly drawn) [Compound 7.8, 7-[1-(2,2-difluorocyclopropyl)-1H-pyrrol-3-yl]-5-{[(2S)-6,6-dimethylmorpholin-2-yl]methoxy}quinoline] | 3270 | 19.3 |  |
| COCCn1ccc(-c2cc(OC[C@@H]3CNCCO3)c3cccnc3c2)c1 [Compound 7.9, 7-[1-(2-methoxyethyl)-1H-pyrrol-3-yl]-5-{[(2S)-morpholin-2-yl]methoxy}quinoline] | 2440 | 234 |  |
| CC(C)n1ccc(-c2cc(OC[C@@H]3CNCC4(CC4)O3)c3cccnc3c2)c1 [Compound 7.13, 5-{[(5S)-4-oxa-7-azaspiro[2.5]octan-5-yl]methoxy}-7-[1-(propan-2-yl)-1H-pyrrol-3-yl]quinoline] | 4020 | 22.4 |  |
| FC(F)Cn1cc(-c2cc(OC[C@@H]3CNCCCO3)c3cccnc3c2)cn1 [Compound 7.15, 7-[1-(2,2-difluoroethyl)-1H-pyrazol-4-yl]-5-{[(2S)-1,4-oxazepan-2-yl]methoxy}quinoline] | 2770 | 97.5 |  |
| c1cnc2cc(-c3ccn(C4COC4)c3)cc(OC[C@@H]3CNCC4(CC4)O3)c2c1 [Compound 7.16, 5-{[(5S)-4-oxa-7-azaspiro[2.5]octan-5-yl]methoxy}-7-[1-(oxetan-3-yl)-1H-pyrrol-3-yl]quinoline] | 1710 | 19.8 |  |
| CCn1ccc(-c2cc(OC[C@@H]3CNCC(C)(C)O3)c3cccnc3c2)c1 [Compound 7.17, 5-{[(2S)-6,6-dimethylmorpholin-2-yl]methoxy}-7-(1-ethyl-1H-pyrrol-3-yl)quinoline] | 1960 | 15.8 |  |
| CCn1ccc(-c2cc(O[C@H](C)[C@@H]3CNCCO3)c3cccnc3c2)c1 [Compound 7.18, 7-(1-ethyl-1H-pyrrol-3-yl)-5-[(1R)-1-[(2S)-morpholin-2-yl]ethoxy]quinoline] | 1750 | 53.7 |  |
| CC(C)n1ccc(-c2cc(O[C@H](C)[C@@H]3CNCCO3)c3cccnc3c2)c1 [Compound 7.19, 5-[(1R)-1-[(2S)-morpholin-2-yl]ethoxy]-7-[1-(propan-2-yl)-1H-pyrrol-3-yl]quinoline] | 1870 | 36.3 |  |
| CCn1ccc(-c2cc(OC[C@@H]3CNCCO3)c3cccnc3c2)c1 [Compound 7.20, 7-(1-ethyl-1H-pyrrol-3-yl)-5-{[(2S)-morpholin-2-yl]methoxy}quinoline] | 1690 | 40 |  |
| COCCn1ccc(-c2cc(OC[C@@H]3CNCC4(CC4)O3)c3nccnc3c2)c1 [Compound 8.1, 7-[1-(2-methoxyethyl)-1H-pyrrol-3-yl]-5-{[(5S)-4-oxa-7-azaspiro[2.5]octan-5-yl]methoxy}quinoxaline] | 1850 | 29.3 |  |
| CC(C)n1ccc(-c2cc(OC[C@@H]3CNCC4(CC4)O3)c3nccnc3c2)c1 [Compound 8.2, 5-{[(5S)-4-oxa-7-azaspiro[2.5]octan-5-yl]methoxy}-7-[1-(propan-2-yl)-1H-pyrrol-3-yl]quinoxaline] | 614 | 22.1 |  |
| COCCn1ccc(-c2cc(OC[C@@H]3CNCCO3)c3nccnc3c2)c1 [Compound 8.7] |  | 15.1 | 621 |
| CCn1ccc(-c2cc(OC[C@@H]3CNCCCO3)c3nccnc3c2)c1 [Compound 8.9, 7-(1-ethyl-1H-pyrrol-3-yl)-5-{[(2S)-1,4-oxazepan-2-yl]methoxy}quinoxaline] | 1620 | 20.5 |  |
| CC(C)n1ccc(-c2cc(O[C@H](C)[C@@H]3CNCC(C)(C)O3)c3nccnc3c2)c1 [Compound 8.11, 5-[(1R)-1-[(2S)-6,6-dimethylmorpholin-2-yl]ethoxy]-7-[1-(propan-2-yl)-1H-pyrrol-3-yl]quinoxaline] | 625 | 6.32 |  |
| CCn1ccc(-c2cc(O[C@H](C)[C@@H]3CNCC(C)(C)O3)c3nccnc3c2)c1 [Compound 8.12, 5-[(1R)-1-[(2S)-6,6-dimethylmorpholin-2-yl]ethoxy]-7-(1-ethyl-1H-pyrrol-3-yl)quinoxaline] | 537 | 7.8 |  |
| CC(C)n1ccc(-c2cc(O[C@H](C)[C@@H]3CNCCO3)c3nccnc3c2)c1 [Compound 8.13] |  | 7.3 | 371 |
| CCn1ccc(-c2cc(O[C@H](C)[C@@H]3CNCCO3)c3nccnc3c2)c1 [Compound 8.14, 7-(1-ethyl-1H-pyrrol-3-yl)-5-[(1R)-1-[(2S)-morpholin-2-yl]ethoxy]quinoxaline] | 435 | 8.3 |  |
| C[C@@H](Oc1cc(-c2ccn(CC(F)F)c2)cc2nccnc12)[C@@H]1CNCCO1 [Compound 8.15, 7-[1-(2,2-difluoroethyl)-1H-pyrrol-3-yl]-5-[(1R)-1-[(2S)-morpholin-2-yl]ethoxy]quinoxaline] | 358 | 8.9 |  |

| SMILES | EC50 ([1]; Mus musculus, BaF3, 48 h) [nM] | EC50 [2] [nM] | EC50 [1] [nM] |
| --- | --- | --- | --- |
| CCn1ccc(-c2cc(OC[C@@H]3CNCC4(CCC4)O3)c3nccnc3c2)c1 [Compound 8.16, 7-(1-ethyl-1H-pyrrol-3-yl)-5-{[(6S)-5-oxa-8-azaspiro[3.5]nonan-6-yl]methoxy}quinoxaline] | 822 | 9.4 |  |
| COCCn1ccc(-c2cc(OC[C@@H]3CNCC4(CCC4)O3)c3nccnc3c2)c1 [Compound 8.18, 7-[1-(2-methoxyethyl)-1H-pyrrol-3-yl]-5-{[(6S)-5-oxa-8-azaspiro[3.5]nonan-6-yl]methoxy}quinoxaline] | 335 | 8.4 |  |
| FC(F)Cn1ccc(-c2cc(OC[C@@H]3CNCCCO3)c3nccnc3c2)c1 [Compound 8.20, 7-[1-(2,2-difluoroethyl)-1H-pyrrol-3-yl]-5-{[(2S)-1,4-oxazepan-2-yl]methoxy}quinoxaline] | 1860 | 27.6 |  |
| CCn1ccc(-c2cc(OC[C@@H]3CNCC(C)(C)O3)c3nccnc3c2)c1 [Compound 8.21, 5-{[(2S)-6,6-dimethylmorpholin-2-yl]methoxy}-7-(1-ethyl-1H-pyrrol-3-yl)quinoxaline] | 951 | 10 |  |
| CCn1ccc(-c2cc(OC[C@@H]3CNCCO3)c3nccnc3c2)c1 [Compound 8.22, 7-(1-ethyl-1H-pyrrol-3-yl)-5-{[(2S)-morpholin-2-yl]methoxy}quinoxaline] | 655 | 12.6 |  |
| CC(C)n1ccc(-c2cc(OC[C@@H]3CNC[C@@H](C)O3)c3nccnc3c2)c1 [Compound 8.23, 5-{[(2S,6R)-6-methylmorpholin-2-yl]methoxy}-7-[1-(propan-2-yl)-1H-pyrrol-3-yl]quinoxaline] | 421 | 2.7 |  |
| CC[C@@H](C)n1ccc(-c2cc(OC[C@@H]3CNCCO3)c3nccnc3c2)c1 [Compound 8.24, 7-{1-[(2R)-butan-2-yl]-1H-pyrrol-3-yl}-5-{[(2S)-morpholin-2-yl]methoxy}quinoxaline] | > 1000 | 12.9 |  |
| CC[C@H](C)n1ccc(-c2cc(OC[C@@H]3CNCCO3)c3nccnc3c2)c1 [Compound 8.25, 7-{1-[(2S)-butan-2-yl]-1H-pyrrol-3-yl}-5-{[(2S)-morpholin-2-yl]methoxy}quinoxaline] | > 1000 | 11.5 |  |
| Cn1cc(-c2cc3ncccc3c(O[C@H]([C@@H]3CNCCO3)C(F)(F)F)n2)cn1 [Compound 10.2, 7-(1-methyl-1H-pyrazol-4-yl)-5-[(1R)-2,2,2-trifluoro-1-[(2S)-morpholin-2-yl]ethoxy]-1,6-naphthyridine] | > 10000 | 839 |  |
| CC1(C)CNC[C@@H](COc2nc(-c3cnn4c3CCCC4)cc3ncccc23)O1 [Compound 10.3, 5-{[(2S)-6,6-dimethylmorpholin-2-yl]methoxy}-7-(4H,5H,6H,7H-pyrazolo[1,5-a]pyridin-3-yl}-1,6-naphthyridine] | > 10000 | 365 |  |
| c1cnc2cc(-c3cnn4c3CCCC4)nc(OC[C@@H]3CNCCO3)c2c1 [Compound 10.4, 5-{[(2S)-morpholin-2-yl]methoxy}-7-{4H,5H,6H,7H-pyrazolo[1,5-a]pyridin-3-yl}-1,6-naphthyridine] | 8090 | 663 |  |
| Cn1cc(-c2cc3ncccc3c(O[C@@H]([C@@H]3CNCCO3)C(F)(F)F)n2)cn1 [Compound 10.5, 7-(1-methyl-1H-pyrazol-4-yl)-5-[(1S)-2,2,2-trifluoro-1-[(2S)-morpholin-2-yl]ethoxy]-1,6-naphthyridine] | 3280 | 798 |  |
| CC(C)n1cc(-c2cc3ncccc3c(OC[C@]3(C)CNCCO3)n2)cn1 [Compound 10.6, 5-{[(2S)-2-methylmorpholin-2-yl]methoxy}-7-[1-(propan-2-yl)-1H-pyrazol-4-yl]-1,6-naphthyridine] | 754 | 106 |  |
| CC(C)n1cc(-c2cc3ncccc3c(OC[C@@]3(C)CNCCO3)n2)cn1 [Compound 10.8, 5-{[(2R)-2-methylmorpholin-2-yl]methoxy}-7-[1-(propan-2-yl)-1H-pyrazol-4-yl]-1,6-naphthyridine] | 1900 | 81.1 |  |
| Cn1ccc(-c2cc3ncccc3c(OC[C@@]3(C)CNCCO3)n2)c1 [Compound 10.9, 7-(1-methyl-1H-pyrrol-3-yl)-5-{[(2R)-2-methylmorpholin-2-yl]methoxy}-1,6-naphthyridine] | 7040 | 148 |  |
| Cn1cc(-c2cc3ncccc3c(OC[C@@H]3CNCC(C)(C)CO3)n2)cn1 [Compound 10.10, 5-{[(2S)-6,6-dimethyl-1,4-oxazepan-2-yl]methoxy}-7-(1-methyl-1H-pyrazol-4-yl)-1,6-naphthyridine] | 3680 | 271 |  |
| CC1(C)CNC[C@@H](COc2nc(-c3cnn(C(C)(C)C)c3)cc3ncccc23)OC1 [Compound 10.11, 7-(1-tert-butyl-1H-pyrazol-4-yl)-5-{[(2S)-6,6-dimethyl-1,4-oxazepan-2-yl]methoxy}-1,6-naphthyridine] | 4140 | 80.8 |  |
